Laboratory results as given in patent US4968717A, “Phenylacetonitriles which are substituted by basic groups, their preparation and drugs containing these substances” (BASF Aktiengesellschaft, priority 1986, dated 1990).

Tested on: serotonin
Assay: not given
Conditions: literature; versus known serotonin antagonists; cited from earlier work
For COc1ccc(CCN(C)CCCC(C#N)(c2cc(OC)c(OC)c(OC)c2)C(C)C)cc1OC (stereo not shown) [Gallopamil, reference compound], the “antiserotonin action compared with known serotonin antagonists” value is listed as “not very pronounced”.
For COc1ccc(CCN(C)CCCC(C#N)(c2ccc(OC)c(OC)c2)C(C)C)cc1OC (stereo not shown) [Verapamil], the “antiserotonin action compared with known serotonin antagonists” value is given as “not very pronounced”.

Tested on: serotonin-induced increase in blood pressure
Assay: inhibition of the serotonin-induced increase in blood pressure in the pithed rat on intravenous administration
Format: in vivo, male Sprague-Dawley rats
Conditions: at dose 0.0464 mg/kg
Source text: Pithing is effected by means of a rod through the orbit. […] The criterium for effectiveness of a substance is the relative inhibition (Δ%) of the serotonin-induced increase in blood pressure (ΔmmHg). The valuation was effected quantitatively as an analysis of the linear regression (y=a+b x) of log dose (mg/kg) and relative inhibition (Δ%) of the serotonin-induced increase in blood pressure.
In the case of COc1cc(CCN(C)CCCC(C#N)(c2ccc(Cl)cc2)C(C)C)cc(OC)c1 (stereo not shown) [Example 42, 5-[(3,5-dimethoxyphenethyl)-methylamino]-2-(4-chlorophenyl)-2-isopropylvaleronitrile], the “relative inhibition (Δ%) of the serotonin-induced increase in blood pressure” value was 19%.

Same assay, conditions: at dose 0.1 mg/kg
With COc1ccc(CCN(C)CCCC(C#N)(c2cc(OC)c(OC)c(OC)c2)C(C)C)cc1OC (stereo not shown) [Gallopamil, reference compound] the “relative inhibition (Δ%) of the serotonin-induced increase in blood pressure” value was 22%.

Same assay, conditions: serotonin 0.0215 mg/kg i.v., linear regression of log dose and relative inhibition
In the case of “5-[(3,5-dimethoxyphenethyl)-methylamino]-2-(β,β,β-trifluoroethoxyphenyl)-2-isopropylvaleronitrile [Example 30]”, the “ED 50% (dose which inhibits the serotonin-induced increase in blood pressure by 50%)” value was 0.1 mg/kg.

Same assay, conditions: serotonin 0.0215 mg/kg i.v., linear regression of log dose and relative inhibition, read-out: ED 50% (dose which inhibits the serotonin-induced increase in blood pressure by 50%)
COc1cccc(CCN(C)CCCC(C#N)(c2ccc(OC)c(OC)c2)C(C)C)c1 (racemic) [Example 57, (RS)-5-[(3-methoxyphenethyl)-methylamino]-2-(3,4-dimethoxyphenyl)-2-isopropylvaleronitrile] showed an ED50 of 0.0423 mg/kg.
For COc1cc(CCN(C)CCCC(C#N)(c2cccc(OC)c2)C(C)C)cc(OC)c1 (stereo not shown) [Example 1, 5-[(3,5-Dimethoxyphenethyl)-methylamino]-2-(3-methoxyphenyl)-2-isopropylvaleronitrile], the ED50 was 0.0464 mg/kg.
In the case of COc1cccc(CCN(C)CCCC(C#N)(c2cc(OC)cc(OC)c2)C(C)C)c1 (stereo not shown) [Example 2, 5-[(3-Methoxyphenethyl)-methylamino]-2-(3,5-dimethoxyphenyl)-2-isopropylvaleronitrile], the ED50 was 0.073 mg/kg.
Work on COc1cccc(C(C#N)(CCCN(C)CCc2ccccc2)C(C)C)c1 (stereo not shown) [Example 3, 5-[(Phenethyl)-methylamino]-2-(3-methoxyphenyl)-2-isopropylvaleronitrile] yielded an ED50 of 0.0464 mg/kg.
With COc1cccc(CCN(C)CCCC(C#N)(c2cccc(OC)c2)C(C)C)c1 (stereo not shown) [Example 4, 5-[(3-Methoxyphenethyl)-methylamino]-2-(3-methoxy-phenyl)-2-isopropylvaleronitrile] the ED50 was 0.0318 mg/kg.
COc1cc(OC)cc(C(C#N)(CCCN(C)CCc2ccccc2)C(C)C)c1 (stereo not shown) [Example 5, 5-[(Phenethyl)methylamino]-2-(3,5-dimethoxyphenyl)-2-isopropylvaleronitrile] gave an ED50 of 0.0464 mg/kg.
COc1cc(OC)cc(C(C#N)(CCCN(C)CCc2ccc(Cl)cc2)C(C)C)c1 (stereo not shown) [Example 6, 5-[(4-Chlorophenethyl)-methylamino]-2-(3,5-dimethoxyphenyl)-2-isopropylvaleronitrile] showed an ED50 of 0.1 mg/kg.
Work on COc1cc(OC)cc(C(C#N)(CCCN(C)CCc2ccc(Cl)c(Cl)c2)C(C)C)c1 (stereo not shown) [Example 7, 5-[(3,4-Dichlorophenethyl)-methylamino]-2-(3,5-dimethoxyphenyl)-2-isopropylvaleronitrile] yielded an ED50 of 0.1 mg/kg.
Work on COc1cc(OC)cc(C(C#N)(CCCN(C)CCc2cccc(C(F)(F)F)c2)C(C)C)c1 (stereo not shown) [Example 8, 5-[(3-Trifluoromethylphenethyl)-methylamino]-2-(3,5-dimethoxyphenyl)-2-isopropylvaleronitrile] yielded an ED50 of 0.0499 mg/kg.
COc1cccc(CCN(C)CCCC(C#N)(c2ccccc2)C(C)C)c1 (stereo not shown) [Example 13, 5-[(3-methoxyphenethyl)-methylamino]-2-phenyl-2-isopropylvaleronitrile] showed an ED50 of 0.0464 mg/kg.
With COc1cc(CCN(C)CCCC(C#N)(c2ccccc2)C(C)C)cc(OC)c1 (stereo not shown) [Example 14, 5-[(3,5-dimethoxyphenethyl)-methylamino]-2-phenyl-2-isopropylvaleronitrile] the ED50 was 0.0464 mg/kg.
CCOc1cccc(C(C#N)(CCCN(C)CCc2cc(OC)cc(OC)c2)C(C)C)c1 (stereo not shown) [Example 17, 5-[(3,5-dimethoxyphenethyl)-methylamino]-2-(3-ethoxy-phenyl)-2-isopropylvaleronitrile] showed an ED50 of 0.1 mg/kg.
Work on CCOc1cc(CCN(C)CCCC(C#N)(c2cc(OC)cc(OC)c2)C(C)C)cc(OCC)c1 (stereo not shown) [Example 19, 5-[(3,5-diethoxyphenethyl)-methylamino]-2-(3,5-dimethoxyphenyl)-2-isopropylvaleronitrile] yielded an ED50 of 0.1 mg/kg.
Compound COc1cc(OC)cc(C(C#N)(CCCN(C)CCc2ccc(C)c(C)c2)C(C)C)c1 (stereo not shown) [Example 20, 5-[(3,4-xylylethyl)-methylamino]-2-(3,5-dimethoxyphenyl)-2-isopropylvaleronitrile] has an ED50 of 0.1 mg/kg.
In the case of CCOc1cc(CCN(C)CCCC(C#N)(c2ccccc2)C(C)C)cc(OCC)c1 (stereo not shown) [Example 24, 5-[(3,5-diethoxyphenethyl)-methylamino]-2-phenyl-2-isopropylvaleronitrile], the ED50 was 0.1 mg/kg.
In the case of COc1cc(OC)cc(C(C#N)(CCCN(C)CCc2ccc3c(c2)OCO3)C(C)C)c1 (stereo not shown) [Example 27, 5-[(3,4-methylenedioxyphenethyl)-methylamino]-2-(3,5-dimethoxyphenyl)-2-isopropylvaleronitrile], the ED50 was 0.0464 mg/kg.
With C=CCC(C#N)(CCCN(C)CCc1ccccc1)c1cccc(Cl)c1 (stereo not shown) [Example 31, 5-[(phenethyl)-methylamino]-2-(3-chlorophenyl)-2-allylvaleronitrile] the ED50 was 0.464 mg/kg.
Work on C=CCC(C#N)(CCCN(C)CCc1cccc(OC)c1)c1cccc(Cl)c1 (stereo not shown) [Example 32, 5-[(3-methoxyphenethyl)-methylamino]-2-(3-chlorophenyl)-2-allylvaleronitrile] yielded an ED50 of 0.316 mg/kg.
Work on COc1cccc(CCN(C)CCCC(C#N)(c2cc(OC)c(OC)c(OC)c2)C(C)C)c1 (stereo not shown) [Example 36, 5-[(3-methoxyphenethyl)-methylamino]-2-(3,4,5-trimethoxyphenyl)-2-isopropylvaleronitrile] yielded an ED50 of 0.0464 mg/kg.
Work on COc1cc(C(C#N)(CCCN(C)CCc2cccc([N+](=O)[O-])c2)C(C)C)cc(OC)c1OC (stereo not shown) [Example 37, 5-[(3-nitrophenethyl)-methylamino]-2-(3,4,5-trimethoxyphenyl)-2-isopropylvaleronitrile] yielded an ED50 of 0.0464 mg/kg.
Work on COc1cc(C(C#N)(CCCN(C)CCc2cccc(Cl)c2)C(C)C)cc(OC)c1OC (stereo not shown) [Example 38, 5-[(3-chlorophenethyl)-methylamino]-2-(3,4,5-trimethoxyphenyl)-2-isopropylvaleronitrile] yielded an ED50 of 0.0681 mg/kg.
With COc1cc(C(C#N)(CCCN(C)CCc2ccc3c(c2)COCO3)C(C)C)cc(OC)c1OC (stereo not shown) [Example 39, 5-[(1,3-benzodioxan-6-ylethyl)-methylamino]-2-(3,4,5-trimethoxyphenyl)-2-isopropylvaleronitrile] the ED50 was 0.0395 mg/kg.
COc1ccc(C(C#N)(CCCN(C)CCc2ccc(Cl)c(Cl)c2)C(C)C)cc1OC (stereo not shown) [Example 40, 5-[(3,4-dichlorophenethyl)-methylamino]-2-(3,4-dimethoxyphenyl)-2-isopropylvaleronitrile] gave an ED50 of 0.1 mg/kg.
For COc1cc(CCN(C)CCCC(C#N)(c2ccc(Cl)c(Cl)c2)C(C)C)cc(OC)c1 (stereo not shown) [Example 41, 5-[(3,5-dimethoxyphenethyl)-methylamino]-2-(3,4-dichlorophenyl)-2-isopropylvaleronitrile], the ED50 was 0.1 mg/kg.
For COc1cc(CCN(C)CCCC(C#N)(c2ccc(Cl)cc2)C(C)C)cc(OC)c1 (stereo not shown) [Example 42, 5-[(3,5-dimethoxyphenethyl)-methylamino]-2-(4-chlorophenyl)-2-isopropylvaleronitrile], the ED50 was over 0.0464 mg/kg.
For COc1cc(CCN(C)CCCC(C#N)(C(C)C)C2CCc3ccccc3C2)cc(OC)c1 (stereo not shown) [Example 43, 5-[(3,5-dimethoxyphenethyl)-methylamino]-2-(1,2,3,4-tetrahydronaphth-2-yl)-2-isopropylvaleronitrile], the ED50 was 0.215 mg/kg.
In the case of CCOc1cccc(C(C#N)(CCCN(C)CCc2ccc(OC)c(OC)c2)C(C)C)c1 (stereo not shown) [Example 44, 5-[(3,4-dimethoxyphenethyl)-methylamino]-2-(3-ethoxy-phenyl)-2-isopropylvaleronitrile], the ED50 was 0.0464 mg/kg.
With COc1cccc(CCN(C)CCC[C@@](C#N)(c2ccc(OC)c(OC)c2)C(C)C)c1 [Example 58, (S)-5-[(3-methoxyphenethyl)-methylamino]-2-(3,4-dimethoxyphenyl)-2-isopropylvaleronitrile] the ED50 was 0.0201 mg/kg.
Work on COc1cc(CCN(C)CCCC(C#N)(c2cc(OC)cc(OC)c2)C(C)C)cc(OC)c1 (stereo not shown) [Example 59, 5-[(3,5-dimethoxyphenethyl)-methylamino]-2-(3,5-dimethoxyphenyl)-2-isopropylvaleronitrile] yielded an ED50 of 0.0464 mg/kg.
For COc1cc(C(C#N)(CCCN(C)CCc2ccccc2)C(C)C)cc(OC)c1OC (stereo not shown) [Example 60, 5-[(phenethyl)-methylamino]-2-(3,4,5-trimethoxyphenyl)-2-isopropylvaleronitrile], the ED50 was 0.0464 mg/kg.
COc1cc(C(C#N)(CCCN(C)CCc2cccc(C(F)(F)F)c2)C(C)C)cc(OC)c1OC (stereo not shown) [Example 61, 5-[(3-trifluoromethylphenethyl)-methylamino]-2-(3,4,5-trimethoxyphenyl)-2-isopropylvaleronitrile] gave an ED50 of 0.0681 mg/kg.
In the case of COc1ccc(CCN(C)CCCC(C#N)(c2cc(OC)c(OC)c(OC)c2)C(C)C)cc1OC (stereo not shown) [Gallopamil, reference compound], the ED50 was 0.1 mg/kg.
